Measurements as given in ChEMBL document CHEMBL1147910, “Novel C-5 aminomethyl pyrrolotriazine dual inhibitors of EGFR and HER2 protein tyrosine kinases” (Bioorg Med Chem Lett, 2007).

Key:
[1] = Drug level in BALB/c mouse plasma at 50 mg/kg, po after 4 hrs; type: ADME, organism-based; parameters: dose 50 mg/kg, route oral
[2] = molecular target: Receptor tyrosine-protein kinase erbB-2 (Homo sapiens, UniProt P04626); assay: Inhibition of human HER2
NCI-N87 [3] = assay: Antiproliferative activity against human N87 cells; type: functional, cell-based
[4] = molecular target: Epidermal growth factor receptor (Homo sapiens, UniProt P00533)
Epidermal growth factor receptor, sequence (P00533 whole entry): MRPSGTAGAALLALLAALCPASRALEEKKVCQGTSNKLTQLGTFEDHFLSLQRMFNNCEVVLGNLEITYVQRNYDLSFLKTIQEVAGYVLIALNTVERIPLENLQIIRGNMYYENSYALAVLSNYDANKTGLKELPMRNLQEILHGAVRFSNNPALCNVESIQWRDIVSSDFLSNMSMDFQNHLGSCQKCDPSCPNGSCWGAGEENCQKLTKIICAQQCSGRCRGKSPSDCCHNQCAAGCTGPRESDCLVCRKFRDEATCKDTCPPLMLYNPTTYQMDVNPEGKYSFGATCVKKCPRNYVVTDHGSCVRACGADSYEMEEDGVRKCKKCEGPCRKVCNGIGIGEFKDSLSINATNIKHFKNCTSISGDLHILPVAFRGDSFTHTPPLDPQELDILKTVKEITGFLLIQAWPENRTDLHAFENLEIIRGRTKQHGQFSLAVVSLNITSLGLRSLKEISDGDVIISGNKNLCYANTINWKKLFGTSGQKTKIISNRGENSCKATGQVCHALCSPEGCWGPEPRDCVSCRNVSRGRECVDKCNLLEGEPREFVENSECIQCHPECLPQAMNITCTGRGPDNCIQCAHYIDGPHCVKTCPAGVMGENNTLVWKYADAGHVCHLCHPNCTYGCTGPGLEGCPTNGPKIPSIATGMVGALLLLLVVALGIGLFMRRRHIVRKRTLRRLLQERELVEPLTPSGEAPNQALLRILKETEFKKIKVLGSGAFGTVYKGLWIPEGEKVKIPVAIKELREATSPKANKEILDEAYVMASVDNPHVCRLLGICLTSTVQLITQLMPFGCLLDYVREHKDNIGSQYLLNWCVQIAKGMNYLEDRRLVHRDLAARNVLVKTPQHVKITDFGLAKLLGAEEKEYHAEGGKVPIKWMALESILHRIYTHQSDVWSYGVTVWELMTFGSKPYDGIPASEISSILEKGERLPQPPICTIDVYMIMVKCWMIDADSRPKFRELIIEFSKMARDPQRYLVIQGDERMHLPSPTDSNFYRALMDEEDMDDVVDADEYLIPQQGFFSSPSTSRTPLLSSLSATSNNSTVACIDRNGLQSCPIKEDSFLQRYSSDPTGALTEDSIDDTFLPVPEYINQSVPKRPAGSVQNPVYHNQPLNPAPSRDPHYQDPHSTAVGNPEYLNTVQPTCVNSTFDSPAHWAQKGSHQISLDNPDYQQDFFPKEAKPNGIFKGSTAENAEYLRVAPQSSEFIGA

HT-29 = assay: Antiproliferative activity against human HT29 cells
[5] = Metabolic stability in mouse liver microsomes at 3 uM in presence of NADPH after 10 min; type: ADME, Microsome
A2780 = assay: Antiproliferative activity against human A2780 cells; type: functional, cell-based
[6] = Cmax in BALB/c mouse at 90 mg/kg, po; type: ADME, organism-based; parameters: dose 90 mg/kg, route oral; conditions: in vivo
[7] = Tmax in BALB/c mouse at 90 mg/kg, po; type: ADME, organism-based; parameters: dose 90 mg/kg, route oral; conditions: in vivo
[8] = AUC in BALB/c mouse at 90 mg/kg, po; type: ADME, organism-based; parameters: dose 90 mg/kg, route oral; conditions: plasma
[9] = Half life in BALB/c mouse at 10 mg/kg, iv; type: ADME, organism-based; parameters: dose 10 mg/kg, route intravenous; conditions: in vivo
[10] = Mean residence time in BALB/c mouse at 10 mg/kg, iv; type: ADME, organism-based; parameters: dose 10 mg/kg, route intravenous; conditions: in vivo
[11] = Plasma clearance in BALB/c mouse at 10 mg/kg, iv; type: ADME, organism-based; parameters: dose 10 mg/kg, route intravenous
[12] = Volume of distribution at steady state in BALB/c mouse at 10 mg/kg, iv; type: ADME, organism-based; parameters: dose 10 mg/kg, route intravenous; conditions: in vivo, read-out: Vss
[13] = Oral bioavailability in BALB/c mouse at 90 mg/kg, po; type: ADME, organism-based; conditions: in vivo
Plasma = assay: Fraction unbound ligand in BALB/c mouse plasma; type: ADME, cell-free
[14] = Aqueous solubility at pH 3.9; type: physicochemical; conditions: buffer
[15] = Aqueous solubility in phosphate buffer at pH 7.5; type: physicochemical
NCI-N87 [16] = assay: Antitumor activity against human N87 cells xenografted in athymic mouse at 90 mg/kg, po twice daily after 14 days; conditions: 336 h, read-out: TGI
[17] = Antitumor activity against human GEO cells xenografted in athymic mouse at 90 mg/kg, po twice daily after 14 days; conditions: 336 h, read-out: TGI
[18] = Toxicity in human N87 cells xenografted athymic mouse; type: organism-based, NCI-N87; conditions: in vivo
[19] = Mortality in human N87 cells xenografted athymic mouse at 180 mg/kg, po; type: organism-based, NCI-N87; parameters: dose 180 mg/kg, route oral; conditions: in vivo, read-out: Activity
NCI-N87 [20] = assay: animal or person; conditions: Mus musculus, NCI-N87, po, 336 h, read-out: TGI
Description: (§1) Antitumor activity against human N87 cells xenografted in athymic mouse at 135 mg/kg, po twice daily after 14 days

NCI-N87 [21] = assay: animal or person; conditions: Mus musculus, NCI-N87, po, 336 h, read-out: TGI; remark: listed apart in the source
Description: Antitumor activity against human N87 cells xenografted in athymic mouse at 180 mg/kg, po twice daily after 14 days

NCI-N87 [22] = assay: animal or person; conditions: Mus musculus, NCI-N87, po, 336 h, read-out: TGI; remark: listed apart in the source
Description: as §1

Receptor tyrosine-protein kinase erbB-2, sequence (P04626 whole entry): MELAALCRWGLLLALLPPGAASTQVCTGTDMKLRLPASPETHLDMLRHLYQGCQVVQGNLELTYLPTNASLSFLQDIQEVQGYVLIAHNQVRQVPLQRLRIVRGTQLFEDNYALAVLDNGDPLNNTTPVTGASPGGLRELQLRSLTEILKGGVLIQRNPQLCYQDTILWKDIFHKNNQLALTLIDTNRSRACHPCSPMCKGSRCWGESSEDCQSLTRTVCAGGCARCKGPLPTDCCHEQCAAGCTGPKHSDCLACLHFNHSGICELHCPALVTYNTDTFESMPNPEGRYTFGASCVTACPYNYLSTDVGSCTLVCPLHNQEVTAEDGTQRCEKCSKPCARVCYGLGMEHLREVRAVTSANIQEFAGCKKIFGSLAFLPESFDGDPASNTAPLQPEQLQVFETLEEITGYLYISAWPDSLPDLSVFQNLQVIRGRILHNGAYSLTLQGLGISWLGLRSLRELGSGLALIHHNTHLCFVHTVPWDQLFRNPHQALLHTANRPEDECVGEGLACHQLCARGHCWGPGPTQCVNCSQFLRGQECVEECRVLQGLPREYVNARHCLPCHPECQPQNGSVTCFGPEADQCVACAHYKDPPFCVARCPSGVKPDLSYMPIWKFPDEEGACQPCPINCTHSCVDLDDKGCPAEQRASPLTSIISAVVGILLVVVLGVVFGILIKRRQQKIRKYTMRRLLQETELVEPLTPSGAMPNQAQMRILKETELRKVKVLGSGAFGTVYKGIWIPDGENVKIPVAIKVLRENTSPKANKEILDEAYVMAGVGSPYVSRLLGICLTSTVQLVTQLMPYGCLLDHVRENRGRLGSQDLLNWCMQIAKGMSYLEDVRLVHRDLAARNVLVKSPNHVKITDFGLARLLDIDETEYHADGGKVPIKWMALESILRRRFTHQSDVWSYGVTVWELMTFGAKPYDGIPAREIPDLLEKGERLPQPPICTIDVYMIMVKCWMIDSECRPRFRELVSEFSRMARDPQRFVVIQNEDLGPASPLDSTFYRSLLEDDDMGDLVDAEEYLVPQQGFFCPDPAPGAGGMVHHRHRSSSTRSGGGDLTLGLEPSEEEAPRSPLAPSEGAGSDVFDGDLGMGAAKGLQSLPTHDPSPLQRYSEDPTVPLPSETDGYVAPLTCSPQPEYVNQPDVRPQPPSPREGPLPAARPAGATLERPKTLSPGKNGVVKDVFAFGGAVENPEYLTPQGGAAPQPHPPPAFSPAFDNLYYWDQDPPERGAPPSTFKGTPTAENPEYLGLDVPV

| SMILES | concentration at 4 h [1] | IC50 [2] | IC50 (NCI-N87 [3]) | IC50 [4] | IC50 (HT-29) | metabolic rate [5] | other results |
| --- | --- | --- | --- | --- | --- | --- | --- |
| CN1CCN(Cc2ccn3ncnc(Nc4ccc5c(cnn5Cc5cccc(F)c5)c4)c23)CC1 | 480 nM | 120 nM | 490 nM | 170 nM |  |  |  |
| COC(=O)C1CCN(Cc2ccn3ncnc(Nc4ccc5c(cnn5Cc5cccc(F)c5)c4)c23)CC1 | 27 nM | > 1000 nM | > 5000 nM | 1000 nM | > 10000 nM |  |  |
| OC1CCN(Cc2ccn3ncnc(Nc4ccc5c(cnn5Cc5cccc(F)c5)c4)c23)CC1 | 250 nM | 63 nM | 140 nM | 68 nM |  | 0.29 nmol/min/mg |  |
| CC1CNCCN(Cc2ccn3ncnc(Nc4ccc5c(cnn5Cc5cccc(F)c5)c4)c23)C1 (configuration not stated) |  | 74 nM | 680 nM | 130 nM |  | 0 nmol/min/mg | IC50 (A2780): > 2100 nM |
| O=C1CCN(Cc2ccn3ncnc(Nc4ccc5c(cnn5Cc5cccc(F)c5)c4)c23)CCN1 | 44 nM | 750 nM | 200 nM | 240 nM | > 10000 nM | 0.27 nmol/min/mg |  |
| CC(=O)N1CCN(Cc2ccn3ncnc(Nc4ccc5c(cnn5Cc5cccc(F)c5)c4)c23)CC1 | 4100 nM | 610 nM |  | 710 nM |  |  |  |
| NC(=O)C1CCN(Cc2ccn3ncnc(Nc4ccc5c(cnn5Cc5cccc(F)c5)c4)c23)CC1 |  | 310 nM | 400 nM | 140 nM |  |  |  |
| O[C@H]1CNCCN(Cc2ccn3ncnc(Nc4ccc5c(cnn5Cc5cccc(F)c5)c4)c23)C1 | 1510 nM | 16 nM | 160 nM | 26 nM | > 10000 nM | 0.12 nmol/min/mg |  |
| CS(=O)(=O)N1CCCN(Cc2ccn3ncnc(Nc4ccc5c(cnn5Cc5cccc(F)c5)c4)c23)CC1 |  | 120 nM | 330 nM | 210 nM | > 10000 nM |  |  |
| O=C1CNCCN(Cc2ccn3ncnc(Nc4ccc5c(cnn5Cc5cccc(F)c5)c4)c23)C1 |  | 39 nM | 650 nM | 780 nM | > 10000 nM |  |  |
| CN1CCCN(Cc2ccn3ncnc(Nc4ccc5c(cnn5Cc5cccc(F)c5)c4)c23)CC1 | 93 nM | 120 nM | 620 nM | 130 nM | > 7900 nM | 0.21 nmol/min/mg |  |
| CN(CCO)Cc1ccn2ncnc(Nc3ccc4c(cnn4Cc4cccc(F)c4)c3)c12 |  |  | 1200 nM |  |  |  |  |
| Fc1cccc(Cn2ncc3cc(Nc4ncnn5ccc(CN6CCNCC6)c45)ccc32)c1 | 6300 nM | 81 nM | 730 nM | 90 nM |  | 0 nmol/min/mg |  |
| OCCNCc1ccn2ncnc(Nc3ccc4c(cnn4Cc4cccc(F)c4)c3)c12 |  | 47 nM | 1950 nM | 45 nM |  |  |  |
| Fc1cccc(Cn2ncc3cc(Nc4ncnn5ccc(CN6CCCC6)c45)ccc32)c1 |  | 360 nM |  | 500 nM |  |  |  |
| O[C@@H]1CNCCN(Cc2ccn3ncnc(Nc4ccc5c(cnn5Cc5cccc(F)c5)c4)c23)C1 | 880 nM | 76 nM | 950 nM | 200 nM | > 10000 nM | 0.12 nmol/min/mg |  |
| Cc1ccn2ncnc(Nc3ccc4c(cnn4Cc4cccc(F)c4)c3)c12 | 4100 nM |  |  |  | > 10000 nM | 0.14 nmol/min/mg |  |
| O=C(O)C1CCN(Cc2ccn3ncnc(Nc4ccc5c(cnn5Cc5cccc(F)c5)c4)c23)CC1 | 600 nM | 110 nM | > 5000 nM |  | > 10000 nM | 0.23 nmol/min/mg |  |
| Fc1cccc(Cn2ncc3cc(Nc4ncnn5ccc(CN6CCCNCC6)c45)ccc32)c1 | 1300 nM | 27 nM |  | 33 nM | > 3600 nM | 0.05 nmol/min/mg | Cmax [6]: 7950 nM; Tmax [7]: 3 h; AUC [8]: 48.9 µM·h; half-life [9]: 3.7 h; MRT [10]: 4 h; clearance [11]: 39 mL/min/kg; Vd [12]: 9.5 L/kg; bioavailability [13]: 77%; PB (Plasma): 98.4%; Solubility [14]: 9.7 mg/kg; Solubility [15]: 0.012 mg/kg; inhibition in vivo at 90 mg/kg (NCI-N87 [16]): 97%; inhibition in vivo at 90 mg/kg [17]: 90%; MTD [18]: 180 mg/kg; mortality [19]: 12%; inhibition in vivo at 135 mg/kg (NCI-N87 [20]): 111%; inhibition in vivo at 180 mg/kg (NCI-N87 [21]): 121%; inhibition in vivo at 135 mg/kg (NCI-N87 [22]): 78% |
| O=C1CN(Cc2ccn3ncnc(Nc4ccc5c(cnn5Cc5cccc(F)c5)c4)c23)CCN1 |  | 200 nM | 520 nM | 350 nM | > 10000 nM |  |  |
| COC1CNCCN(Cc2ccn3ncnc(Nc4ccc5c(cnn5Cc5cccc(F)c5)c4)c23)C1 (configuration not stated) |  | 170 nM | 3700 nM | 190 nM |  |  | IC50 (A2780): > 5000 nM |
